Source: the NIST ThermoML archive (doi:10.1016/j.jct.2016.03.026)

Assay: xn = mol fraction of the nth substance listed
Details: Fluid (supercritical or subcritical phases); for mass density: Vibrating tube method; for speed of sound: Frequency=5 MHz, Pulse-echo method

O=C=O [carbon dioxide] + CO
Details	mass density [kg/m3]	speed of sound [m/s]
263.15 K, 19700 kPa, x1 = 0.97	1052.08	–
263.15 K, 19725 kPa, x1 = 0.97	1052.13	–
263.15 K, 19750 kPa, x1 = 0.97	1052.26	–
263.15 K, 19775 kPa, x1 = 0.97	1052.28	–
263.15 K, 19800 kPa, x1 = 0.97	1052.34	–
263.15 K, 19825 kPa, x1 = 0.97	1052.45	–
263.15 K, 19850 kPa, x1 = 0.97	1052.5	–
263.15 K, 19875 kPa, x1 = 0.97	1052.59	–
263.15 K, 19900 kPa, x1 = 0.97	1052.67	–
263.15 K, 19925 kPa, x1 = 0.97	1052.75	–
263.15 K, 19950 kPa, x1 = 0.97	1052.83	–
263.15 K, 19975 kPa, x1 = 0.97	1052.91	–
263.15 K, 20000 kPa, x1 = 0.97	1052.99	–
263.16 K, 3280 kPa, x1 = 0.97	–	626.2
263.16 K, 3800 kPa, x1 = 0.97	–	633.5
263.16 K, 5050 kPa, x1 = 0.97	–	649.7
263.16 K, 6020 kPa, x1 = 0.97	–	661.8
263.16 K, 6170 kPa, x1 = 0.97	–	664.3
263.16 K, 8100 kPa, x1 = 0.97	–	687.5
263.16 K, 10020 kPa, x1 = 0.97	–	706.8
263.16 K, 14960 kPa, x1 = 0.97	–	752.4
263.16 K, 19890 kPa, x1 = 0.97	–	792.8
263.16 K, 24920 kPa, x1 = 0.97	–	829.4
263.16 K, 29960 kPa, x1 = 0.97	–	862.5
263.16 K, 34890 kPa, x1 = 0.97	–	892.6
263.16 K, 39940 kPa, x1 = 0.97	–	921
263.16 K, 44890 kPa, x1 = 0.97	–	947
263.16 K, 49990 kPa, x1 = 0.97	–	972.3
263.16 K, 54910 kPa, x1 = 0.97	–	995.6
263.16 K, 60010 kPa, x1 = 0.97	–	1018.3
263.16 K, 65090 kPa, x1 = 0.97	–	1039.8
263.16 K, 69970 kPa, x1 = 0.97	–	1059.9
263.16 K, 75000 kPa, x1 = 0.97	–	1079.5
263.16 K, 80150 kPa, x1 = 0.97	–	1098.9
263.16 K, 90130 kPa, x1 = 0.97	–	1134.4
263.16 K, 100140 kPa, x1 = 0.97	–	1168
263.16 K, 110060 kPa, x1 = 0.97	–	1199.3
263.16 K, 119960 kPa, x1 = 0.97	–	1228.9
263.16 K, 140000 kPa, x1 = 0.97	–	1284.7
263.16 K, 159900 kPa, x1 = 0.97	–	1335.8
263.16 K, 179990 kPa, x1 = 0.97	–	1383.3
263.16 K, 194490 kPa, x1 = 0.97	–	1415.5
263.18 K, 6060 kPa, x1 = 0.7534	–	735.8
263.18 K, 9710 kPa, x1 = 0.7534	–	770.9
263.18 K, 14730 kPa, x1 = 0.7534	–	813.5
263.18 K, 14950 kPa, x1 = 0.9803	–	747.6
263.18 K, 20160 kPa, x1 = 0.7534	–	854.1
263.18 K, 24940 kPa, x1 = 0.7534	–	886.4
263.18 K, 30090 kPa, x1 = 0.7534	–	918.5
263.18 K, 34860 kPa, x1 = 0.9803	–	887.4
263.18 K, 35000 kPa, x1 = 0.7534	–	946.9
263.18 K, 39910 kPa, x1 = 0.9803	–	916.3
263.18 K, 40020 kPa, x1 = 0.7534	–	974
263.18 K, 44820 kPa, x1 = 0.7534	–	998.5
263.18 K, 44980 kPa, x1 = 0.9803	–	943.5
263.18 K, 49950 kPa, x1 = 0.7534	–	1023.2
263.18 K, 50170 kPa, x1 = 0.9803	–	969
263.18 K, 55000 kPa, x1 = 0.9803	–	992.2
263.18 K, 55090 kPa, x1 = 0.7534	–	1046.8
263.18 K, 59880 kPa, x1 = 0.7534	–	1067.8
263.18 K, 60140 kPa, x1 = 0.9803	–	1015.5
263.18 K, 64760 kPa, x1 = 0.9803	–	1035.7
263.18 K, 64880 kPa, x1 = 0.7534	–	1088.8
263.18 K, 70160 kPa, x1 = 0.9803	–	1058.2
263.18 K, 70360 kPa, x1 = 0.7534	–	1110.8
263.18 K, 75340 kPa, x1 = 0.7534	–	1130
263.18 K, 75410 kPa, x1 = 0.9803	–	1078.8
263.18 K, 79750 kPa, x1 = 0.9803	–	1095.2
263.18 K, 80260 kPa, x1 = 0.7534	–	1148.4
263.18 K, 89760 kPa, x1 = 0.7534	–	1182.3
263.18 K, 89940 kPa, x1 = 0.9803	–	1132.1
263.18 K, 99680 kPa, x1 = 0.9803	–	1165
263.18 K, 100040 kPa, x1 = 0.7534	–	1216.8
263.18 K, 109950 kPa, x1 = 0.9803	–	1197.7
263.18 K, 110590 kPa, x1 = 0.7534	–	1250.3
263.18 K, 119810 kPa, x1 = 0.7534	–	1278.1
263.18 K, 120700 kPa, x1 = 0.9803	–	1230.1
263.18 K, 140780 kPa, x1 = 0.9803	–	1286.1
263.18 K, 141280 kPa, x1 = 0.7534	–	1338.3
263.18 K, 159890 kPa, x1 = 0.7534	–	1386.5
263.18 K, 160950 kPa, x1 = 0.9803	–	1337.6
263.18 K, 179550 kPa, x1 = 0.7534	–	1433.7
263.18 K, 179550 kPa, x1 = 0.9803	–	1382.1
263.19 K, 6000 kPa, x1 = 0.8502	–	691.2
263.19 K, 9880 kPa, x1 = 0.8502	–	731.2
263.19 K, 14650 kPa, x1 = 0.8502	–	773.8
263.19 K, 19850 kPa, x1 = 0.8502	–	814.7
263.19 K, 24990 kPa, x1 = 0.8502	–	850.9
263.19 K, 29690 kPa, x1 = 0.8502	–	881.1
263.19 K, 35020 kPa, x1 = 0.8502	–	912.8
263.19 K, 40080 kPa, x1 = 0.8502	–	940.7
263.19 K, 44910 kPa, x1 = 0.8502	–	965.8
263.19 K, 50170 kPa, x1 = 0.8502	–	991.7
263.19 K, 55230 kPa, x1 = 0.8502	–	1015.1
263.19 K, 60100 kPa, x1 = 0.8502	–	1036.7
263.19 K, 64650 kPa, x1 = 0.8502	–	1056
263.19 K, 70030 kPa, x1 = 0.8502	–	1078
263.19 K, 74380 kPa, x1 = 0.8502	–	1095.2
263.19 K, 80050 kPa, x1 = 0.8502	–	1116.4
263.19 K, 90050 kPa, x1 = 0.8502	–	1152.6
263.19 K, 100540 kPa, x1 = 0.8502	–	1187.6
263.19 K, 110230 kPa, x1 = 0.8502	–	1218.2
263.19 K, 120050 kPa, x1 = 0.8502	–	1247.8
263.19 K, 140150 kPa, x1 = 0.8502	–	1303.4
263.19 K, 150270 kPa, x1 = 0.8502	–	1329.1
273.15 K, 4600 kPa, x1 = 0.97	940.38	–
273.15 K, 4625 kPa, x1 = 0.97	940.6	–
273.15 K, 4650 kPa, x1 = 0.97	940.77	–
273.15 K, 4675 kPa, x1 = 0.97	941.01	–
273.15 K, 4700 kPa, x1 = 0.97	941.48	–
273.15 K, 4725 kPa, x1 = 0.97	941.61	–
273.15 K, 4750 kPa, x1 = 0.97	941.7	–
273.15 K, 4775 kPa, x1 = 0.97	942	–
273.15 K, 4800 kPa, x1 = 0.97	942.41	–
273.15 K, 4825 kPa, x1 = 0.97	942.58	–
273.15 K, 4850 kPa, x1 = 0.97	942.76	–
273.15 K, 4875 kPa, x1 = 0.97	942.95	–
273.15 K, 4900 kPa, x1 = 0.97	943.14	–
273.15 K, 4925 kPa, x1 = 0.97	943.32	–
273.15 K, 4950 kPa, x1 = 0.97	943.48	–
273.15 K, 4975 kPa, x1 = 0.97	943.65	–
273.15 K, 5000 kPa, x1 = 0.97	–	570.5
